One series relates to GRP78. The experiment in a line: Immunoblotting, expression of GRP78. In kind it is cell-based, human. The conditions noted are these: for expression of intracellular GRP78 (time dependent study): 200 nM. On the procedure: (§1) Immunoblotting. MDA-MB-231 and MCF7 cells (0.5×10^6) were plated in six well plates for overnight in a humidified CO2 incubator and then exposed to varying concentrations of 5 (50, 100 and 200 nM) for 24 h along with vehicle (dose dependent study) and 200 nM of 5 for various time points like; 0, 6, 12, 24 and 48 h (time dependent study). Cells were then harvested, washed with chilled PBS and lysed with lysis buffer (HEPES 1 mM, KCl 60 mM, NP-40 0.3%, EDTA 1 mM, DTT 1 mM, sodium orthovanadate 1 mM, PMSF 0.1 mM and cocktail protease inhibitor). The cell extractions were centrifuged at 12,000 rpm for 10 min at 4° C. Protein concentration was measured by the standard Bradford method. An equal amount (20 μg) of protein from each sample was subjected to SDS-PAGE, and proteins were transferred to PVDF membranes (PALL), blocked with 5% (w/v) non-fat milk in PBS containing 0.1% Tween-20, probed with relevant antibodies (1:1000 dilution) for 3 h at room temperature or overnight at 4° C., and subsequently washed and probed with species-specific secondary antibodies coupled to horseradish peroxidase. Immunoreactive proteins were detected by Enhanced Chemiluminescence Plus (Thermo) (Rah et al., 2012, PloS one, 7(9), p.e44039.).
(§2) Drug Potentiation Assay. Briefly, MDA-MB-231 cells were exposed to 200 nM of compound 5, 200 nM of doxorubicin alone and/or combination of both (1:1 ratio) for 48 h in cell viability (MTT) assay, for 5 days in a colony formation assay and subjected to western blotting for the expression of GRP78 and Par-4. The ability of 5 to enhance cell killing was expressed as potentiation index (PI), which was the ratio of the […]. Thus, PI>1 indicates potentiation and PI<1 indicates protection.

Another series deals with MDA-MB-231 cells. The experiment in a line: Drug potentiation, colony formation assay. In kind it is cell-based, human. On the procedure: Colony Formation Assay. The experiment was performed according to the pre-standardized protocol (Amin et al., 2015, Mol. Carcinog). Accordingly, MDA-MB-231 cells were seeded in 6 well plates at a density of 1×10^3 cells/ well and incubated for 5 days by giving treatment with vehicle, compound 5, doxorubicin alone and/or combination of compound 5 plus doxorubicin (1:1 ratio). Cells were subsequently washed, fixed with methanol and stained with 0.2% crystal violet for 1 h. Cells were counted from atleast 3 random fields for the colony number under an inverted microscope and photographed at 20× magnifications.
as §2

For series [1], the system named is normal breast epithelial (fR2) cells. The series is described as follows: Cell viability (MTT) assay, normal cells. In kind it is cell-based, human. On the procedure:
Cell Culture and Reagents. The cell lines used in this study were procured from American Type Culture Collection (ATCC), Manassas, USA. MCF7, T47D and fR2 cells were cultured in RPMI-1640 medium, whereas the MDA-MB-231 cells were grown in Leibovitz's (L-15) medium supplemented with 10% fetal bovine serum (Gibco) and 1% penicillin/streptomycin (Sigma) in a humidified CO2 incubator (New Brunswick Galaxy 170 R) with 5% CO2. Reagents such as phenylmethylsulfonyl fluoride (PMSF), dithiothreitol (DTT), DMSO, crystal violet, and Bradford's reagent were purchased from Sigma-Aldrich. Protease inhibitor cocktail was procured from Roche. The antibodies for human GRP78, Par-4, MMP-2, MMP-9, NF-kB, E-cadherin and TIMP-1 were procured from Santa-Cruz Biotechnology. The β-actin antibody and the secondary antibodies such as anti-rabbit IgG and anti-mouse IgG were procured from Sigma-Aldrich.
Cell Viability Assay. The cell viability was determined by standard MTT assay method. […] The amount of coloured formazan derivatives formed was measured by taking optical density (OD) using a microplate reader (TECAN, Infinite M200 Pro) at 570 nm and the percentage cell viability was calculated. The IC50 values were calculated using GraphPad Prism software (Version 5.0). […]

Series [2] in a line: Pharmacokinetic study, intravenous. The conditions noted are these: mouse, plasma, male Balb/c mice, i.v. 2.5 mg/kg b.w. single dose. In kind it is in vivo. The procedure:
Pharmacokinetic (PK) Study. Healthy male Balb/c mice (25-30 grams each) were taken to access the PK profile of 5. There were 11 time points for blood collection and 6 animals were there in each sampling time point for maintaining accuracy of the experiment. Animals were administered with 5, intravenously (2.5 mg/kg, b.w.) and control mice were administered with normal saline. A minimum of 100 μL of plasma was collected from each animal at different time points, viz: (0.083, 0.25, 0.5, 1, 2, 4, 6, 8, 12, 16 and 24 h) after dosing with 5 and then acetonitrile (ACN) 400 μL was added to it to precipitate the plasma proteins. The compound was extracted into the solvent, filtered and analyzed by a 6410B Triple quadrupole LC-MS/MS system (Agilent Technologies, USA). Quantification was performed through multiple reaction monitoring (MRM) separately for all the six samples collected individually at each time point by comparing with the standard calibration curve prepared using Agilent Mass Hunter software (version B.04.00). Various PK parameters like; half life (t1/2) (h), C initial C0 (ng/ml), area under the curve AUC(0-∞) (ng*h/ml), Vd (L/kg), Cl (L/h/kg) and Mean Residence Time (h) were calculated using non-compartmental pharmacokinetic data analysis. […] The pharmacokinetic parameters of compound 5 further provide evidence that the molecule has its very good absorption and biodistribution capability through i.v. route of administration.

For the next series, the system named is MMP-2. The experiment in a line: Immunoblotting, expression of MMP-2. Conditions: MDA-MB-231 cells; dose dependent. Type of series: cell-based, human. On the procedure: as §1
(In general: Immunoblotting shows a protein as a band on a membrane.)

Entries after “also recorded” stand apart in the source; their conditions may differ.

Regarding `CCCCCCCC(c1oc(CO)cc(=O)c1O)c1c[nH]c2ccccc12` (stereo not shown) [Compound 5, 2-{1-(1H-indol-3-yl)octyl}-3-hydroxy-6-(hydroxymethyl)-4H-pyran-4-one], the “expression of intracellular GRP78 (time dependent study)” value in the series with GRP78 (24 h time point) was “consistent decrease”; in the series with GRP78 (48 h time period), “almost vanished”. The “expression of GRP78 (dose dependent study)” value in the series with GRP78 (100 and 200 nM, 24 h, MDA-MB-231 and MCF7 vs vehicle) is “steady downregulation”. In the series on GRP78 (MDA-MB-231, 5 and doxorubicin in combination, 24 h, vs each alone, densitometry), the “decrease in the expression of GRP78” value is 5.1 fold. For the same compound, in the series with MDA-MB-231 cells (200 nM 5 plus 200 nM doxorubicin (1:1), 5 days, colony formation), the “potentiation index (PI)” value is 5.2. Further, the “potentiation of the effect of doxorubicin” value in the series on MDA-MB-231 cells (summary statement, combination with doxorubicin in breast cancer cells) is listed as no more than 6 fold. Further, the IC50 (in general, the point on the concentration scale where inhibition reaches its midpoint) in series [1] (Homo sapiens, FR2, MTT, 44 h + 4 h, mean ± SD of three experiments) was found to be 74 µM. Besides, in series [1] (in words), the “toxicity towards normal breast epithelial (fR2) cells” value is given as “non-toxic; also recorded: less/non-toxic”. Also, the AUC(0-t) in series [2] (read-out: Area under curve (AUC0-t)) was determined as 395 ng·h/mL. Also, the AUC(0-inf) in series [2] (read-out: Area under curve (AUC0-∞)) is 406 ng·h/mL. The C0 in series [2] (read-out: C initial (C0)) was 1220 ng/mL. In addition, the clearance (in general, a measure of how efficiently the substance is removed, as volume per time) in series [2] (read-out: Clearance (Cl) (converted)) is 205 mL/min/kg. Also, the half-life in series [2] (read-out: Half life (t1/2) (converted)) is 25.8 min. Also, in series [2] (read-out: Mean residence time (MRT)), the MRT – broadly, a mean duration of stay, worked out from the concentration-time curve – is 27 min. In series [2] (read-out: Volume of distribution (Vd)), the Vd (in general, the apparent volume that relates the amount in the body to the concentration in plasma or blood) was 7.61 L/kg. The “expression of MMP-2” value in the series on MMP-2 was “downregulated”.

For the origin of these results see patent publication US11180486B2, “Indolylkojyl methane analogues, process of preparation thereof and use as inhibitor of cancer cells invasion and metastasis” (Council of Scientific & Industrial Research, priority 2017, dated 2021).
